According to article PMC5940854, “Nitrothiophene carboxamides, a novel narrow spectrum antibacterial series: Mechanism of action and Efficacy” (Scientific Reports, 2018):
Values after ≈ are worked out from the molar mass of the structure shown.

Experiments:
E. coli BW24113 = experiment: In vitro time kill analysis; format: cell-based; details: for time to 99.9% reduction: at 2–4X MIC; for time to total kill (below the limit of quantitation, LOQ): at 8X MIC
Protocol: (§1) The inoculum used for all the experiments is derived from a single seed lot that is maintained as glycerol stocks at −80 °C and are sub cultured on LB plate for isolated colonies. Single colony of each strain is grown in M9 medium. All test compound stocks and dilutions are prepared in DMSO. Serial two-fold dilutions of compounds are prepared separately, with the concentrations ranging from 2 mg/mL to 0.015 mg/mL. To 150 µl (3–7 × 10^5 CFU/ml) of bacterial culture in 96 well microtitre plates, 3 μL compound from each of the dilutions is added to respective wells to obtain final concentrations ranging from 40 µg/mL to 0.3 µg/mL of the test compounds. Media control, culture control and appropriate reference drug controls are included. […] Growth is monitored by checking absorbance at 600 nm (A600). […] The samples from MIC and above concentrations are plated for MBC (Minimum Bactericidal Concentration). The samples are diluted 1:10 and plated on LB agar plates. […] The killing kinetics is determined by enumerating survivors at various time points following compound exposure. E. coli cells (~10^7 CFU/ml; A600 of 0.1) are treated with various concentrations (40 µg/mL to 0.3 µg/mL) of compounds in a 96-well microtitre plate. At various time intervals (0 to 8 h), 30 μl volumes of treated cultures are serially diluted and plated on LB agar plates. […] Data is expressed as the log10 CFU for each drug treatment.

[1] = tested on: Salmonella typhimurium clinical strain; experiment: MIC, Salmonella typhimurium; format: cell-based
Protocol: as §1, with “plate.” for “plate. At various time intervals (0 to 8 h), 30 μl volumes of treated cultures are serially diluted and plated on LB agar plates.”

[2] = Intravenous pharmacokinetics; format: in vivo, BALB/c mice; details: for AUC / AUC(0-inf) / AUC(0-t) / clearance / half-life / Vd: BALB/c, mouse, in vivo; for AUC: iv, 2 mg/kg, used for estimation of oral bioavailability; for AUC(0-inf) / AUC(0-t) / clearance / half-life / Vd / AUMC0-∞ / Clast / Kel(β) / extr AUC: mice, single IV dose 2 mg/kg; for Vd: read-out: Vss; for condition of mice post dose and throughout the study: single intravenous dose of 2 mg/kg or single oral dose of 10 mg/kg
Protocol: The test substances were formulated in the vehicle DMSO: PEG400: Ethanol (absolute): Water at ratio of 10:40:20:30 (v/v). The required quantity of test compound was weighed, transferred into a vial and dissolved using the appropriate volumes of DMSO, PEG400, Ethanol (absolute) and sterile water in a sequential manner until a clear solution was obtained. The test substance was administered intravenously as a bolus via the tail vein at a dose volume of 5 ml/kg.
(§2) At 5 min, 15 min, 30 min, 1 h, 2 h, 4 h, 8 h, and 24 h time points, and prior to sampling, mice were anaesthetized with isoflurane. From each mouse, two blood samples were drawn; the 1st was non-terminal (0.1 ml) and the 2nd terminal, by retro-orbital plexus puncture using heparanised capillary tubes. Blood was collected in 2 ml Eppendorf tubes containing 0.01 ml of 10% K2EDTA as anticoagulant, mixed gently and placed in ice before centrifugation. Blood was centrifuged at 10,000 rpm for 5 min, and plasma was harvested and stored at −80 °C until bioanalysis.
(§3) Ultrafast liquid chromatography mass spectrometric method was used for the estimation of test compounds in pre-clinical study samples. The analysis was performed using an API 4000 LC-MS/MS system. The interface used with the API 4000 LC-MS/MS was a Turbo Ion spray. The positive ions were measured in MRM mode. The analyte was extracted using a solid-phase extraction procedure. The data was acquired by and integrated using the Applied Biosystems “Analyst” version 1.5.2 software. Linear regression, with 1/x^2 weighting was used for calibration.
(§4) Non-compartmental (NCA) PK analysis was performed using MS Excel. The linear trapezoidal rule was used to estimate the AUC. The NCA analysis was performed using the following equations (3) on mean concentration time data: AUC=Σ[(Ci1+Ci2)/2]∗[ti2−ti1] AUMC=Σ[((Ci1∗ti1)+(Ci2∗ti2))/2)∗(ti2−ti1)] AUCt−∞=Clast/Kel AUC0−∞=AUC0−t+AUCt−∞ AUCextrapolated(%)=[AUCt−∞/AUC0−∞]∗100 where, Ci1 and Ci2 are the concentrations at times ti1 and ti2, respectively. Kel=ln(Cx/Cy)/(ty−tx) where, Kel is the first order elimination rate constant, ln is the natural logarithm, Cx and Cy are the first and last concentrations, respectively on the linear portion of the terminal phase of the concentration-time profile, and ty and tx are the corresponding time points. T1/2=0.693/Kel Cl=Doseiv/AUC0−∞ Vss=(AUMC0−∞/AUC0−∞)∗(Doseiv/AUC0−∞) Cmax and tmax were visually estimated from the mean oral conc-time profile F(%)=(AUCpo/AUCiv)∗(Doseiv/Dosepo)∗100

Oral pharmacokinetics = format: in vivo, BALB/c mice; parameters: Ke: unit not given here; details: for AUC / AUC(0-inf) / AUC(0-t) / Cmax / Tmax / half-life / bioavailability: BALB/c, mouse, plasma; for AUC: po; for AUC(0-inf) / AUC(0-t) / Cmax / Tmax / half-life / Ke / ext AUC: mice
Protocol: The test substances were formulated in 10% DMSO in 0.25% carboxy methyl cellulose. […] Then 3.6 ml of 0.25% of CMC was added in aliquots to the DMSO solution, with constant grinding using a pestle until a uniform suspension was obtained. […]
as §2, §3, §4

E. coli BW25113 = experiment: Neutropenic thigh infection, E. coli BW25113; format: in vivo, BALB/c mice
[3] = tested on: clinical isolate of E. coli (Strain No. 371); experiment: Neutropenic thigh infection, E. coli clinical isolate; format: in vivo, BALB/c mice; details: for Log10CFU Mean Diff. vs. Untreated Controls: Study TI-2014-023, Clinical Isolate N. 371, 100mg/kg per oral; for efficacy in thigh infection model (in words): clinical isolate of E. coli
[4] = tested on: Shigella sonnei clinical strain; experiment: MIC, Shigella sonnei; format: cell-based
Protocol: as §1, with “plate.” for “plate. At various time intervals (0 to 8 h), 30 μl volumes of treated cultures are serially diluted and plated on LB agar plates.”

[5] = tested on: E. coli acrZ knockout strain; experiment: MIC, efflux pump knockout acrZ; format: cell-based; details: Escherichia coli, read-out: MIC acrZ
Protocol: as §1, with “plate.” for “plate. At various time intervals (0 to 8 h), 30 μl volumes of treated cultures are serially diluted and plated on LB agar plates.”

[6] = tested on: E. coli emrB knockout strain; experiment: MIC, efflux pump knockout emrB; format: cell-based; details: Escherichia coli, read-out: MIC emrB
Protocol: as §1, with “plate.” for “plate. At various time intervals (0 to 8 h), 30 μl volumes of treated cultures are serially diluted and plated on LB agar plates.”

[7] = tested on: E. coli mdfA knockout strain; experiment: MIC, efflux pump knockout mdfA; format: cell-based; details: Escherichia coli, read-out: MIC mdfA
Protocol: as §1, with “plate.” for “plate. At various time intervals (0 to 8 h), 30 μl volumes of treated cultures are serially diluted and plated on LB agar plates.”

[8] = tested on: E. coli mdtL knockout strain; experiment: MIC, efflux pump knockout mdtL; format: cell-based; details: Escherichia coli, read-out: MIC mdtL
Protocol: as §1, with “plate.” for “plate. At various time intervals (0 to 8 h), 30 μl volumes of treated cultures are serially diluted and plated on LB agar plates.”

[9] = tested on: E. coli macB knockout strain; experiment: MIC, efflux pump knockout macB; format: cell-based; details: Escherichia coli, read-out: MIC macB
Protocol: as §1, with “plate.” for “plate. At various time intervals (0 to 8 h), 30 μl volumes of treated cultures are serially diluted and plated on LB agar plates.”

SMILES	time to 99.9% reduction (E. coli BW24113) [h]	time to total kill (below the limit of quantitation, LOQ) (E. coli BW24113) [h]	MIC Salmonella typhimurium [1] [µg/mL]	AUC [2] [ng·h/mL]	AUC(0-inf) [2] [ng·h/mL]	AUC(0-t) [2] [ng·h/mL]	clearance [2] [mL/min/kg]	half-life [2] [min]	Vd [2] [L/kg]	AUMC0-∞ [2]	Clast [2] [ng/mL]	Kel(β) [2]	extr AUC [2] [%]	condition of mice post dose and throughout the study [2]	AUC (Oral pharmacokinetics; 10 mg/kg) [ng·h/mL]	AUC(0-inf) (Oral pharmacokinetics; single oral dose 10 mg/kg) [ng·h/mL]	AUC(0-t) (Oral pharmacokinetics; single oral dose 10 mg/kg) [ng·h/mL]	Cmax (Oral pharmacokinetics; single oral dose 10 mg/kg) [ng/mL]	Tmax (Oral pharmacokinetics; single oral dose 10 mg/kg) [min]	half-life (Oral pharmacokinetics; single oral dose 10 mg/kg) [min]	also measured
COc1cc(-c2csc(NC(=O)c3ccc([N+](=O)[O-])s3)n2)ccc1Cl [compound 20, N-(4-(4-chloro-3-methoxyphenyl)thiazol-2-yl)-5-nitrothiophene-2-carboxamide]	6 to 8	8	10 (≈ 25.3 µM)	–	–	–	–	–	–	–	–	–	–	–	–	–	–	–	–	–	–
O=C(Nc1nc(-c2ccc(F)cc2)cs1)c1ccc([N+](=O)[O-])s1 [compound 15, N-(4-(4-Fluorophenyl)thiazol-2-yl)-5-nitrothiophene-2-carboxamide]	6 to 8	8	–	910	911	900	36.7	30	0.4	0.17	12	1.51 ^-h	0.9	visibly normal	750	760	750	1200	15	289	AUC (Oral pharmacokinetics; 100 mg/kg): 10300 ng·h/mL; AUC(0-t) (Oral pharmacokinetics; single oral dose 100 mg/kg): 10300 ng·h/mL; Cmax (Oral pharmacokinetics; single oral dose 100 mg/kg): 3800 ng/mL; Tmax (Oral pharmacokinetics; single oral dose 100 mg/kg): 15 min; bioavailability (Oral pharmacokinetics; oral 10 mg/kg vs IV 2 mg/kg): 16.5%; bioavailability (Oral pharmacokinetics; oral 100 mg/kg vs IV 2 mg/kg): 22.6%; Ke (Oral pharmacokinetics; single oral dose 10 mg/kg): 0.14; ext AUC (Oral pharmacokinetics; single oral dose 10 mg/kg): 1.5%; Log10CFU Mean Diff. vs. Untreated Controls (E. coli BW25113; Study TI-2014-008, BW25113, 30mg/kg per oral): 0.9167 Log10CFU; Log10CFU Mean Diff. vs. Untreated Controls (E. coli BW25113; Study TI-2014-008, BW25113, 100mg/kg per oral): 1.643 Log10CFU; efficacy in thigh infection model (in words) (E. coli BW25113; WT E. coli BW25113): significantly bactericidal; Log10CFU Mean Diff. vs. Untreated Controls [3]: 1.553 Log10CFU; efficacy in thigh infection model (in words) [3]: significantly bactericidal
O=C(Nc1nc(-c2ccc(F)cc2F)cs1)c1ccc([N+](=O)[O-])s1 [compound 12, N-(4-(2,4-difluorophenyl)thiazol-2-yl)-5-nitrothiophene-2-carboxamide]	–	–	2.5 (≈ 6.81 µM)	570	570	570	58.7	36	1.64	0.26	3	1.18 ^-h	0.4	visibly normal	760	760	750	650	15	61.8	bioavailability (Oral pharmacokinetics; oral 10 mg/kg vs IV 2 mg/kg): 26.7%; Ke (Oral pharmacokinetics; single oral dose 10 mg/kg): 0.67; ext AUC (Oral pharmacokinetics; single oral dose 10 mg/kg): 0.5%; Log10CFU Mean Diff. vs. Untreated Controls [3]: 1.907 Log10CFU; efficacy in thigh infection model (in words) [3]: significantly bactericidal; MIC Shigella sonnei [4]: 5 µg/mL (≈ 13.6 µM)
Cc1sc(NC(=O)c2ccc([N+](=O)[O-])s2)nc1-c1ccccc1 [compound 7, N-(5-Methyl-4-phenylthiazol-2-yl)-5-nitrothiophene-2-carboxamide]	–	–	–	–	–	–	–	–	–	–	–	–	–	–	–	–	–	–	–	–	MIC [5]: > 40 µg/mL; MIC [6]: > 40 µg/mL; MIC [7]: > 40 µg/mL; MIC [8]: > 40 µg/mL; MIC [9]: > 40 µg/mL
